Laboratory results taken from PubChem BioAssay AID2384 (Southern Research Specialized Biocontainment Screening …, 2010).

These compounds were tested on S. typhi GFP reporter counter-screen, fluorescence, 4 h (assay: inhibitors in S. typhi counter-screen strain, dose response, counter-screen for PhoP regulon inhibitor project, fluorescence, 4 h (AID 2384)).

Structure (SMILES)	IC50 [µM]
COc1ccc(/C=N/Nc2cc(C)nc3ccc(Br)cc23)cc1	36.4
Cc1cc(OCC(O)CNC(C)c2ccccc2)ccc1C(C)C (configuration not stated)	38.3
CN(C)CCOC(=O)c1sc2ccccc2c1Cl	125
O=C(CCc1ccccc1)NNC(=O)c1ccccn1	57.8
CCC(C)NC(=O)c1cn(CC)c2cc(N3CCN(C)CC3)c(F)cc2c1=O (configuration not stated)	38.2
O=[N+]([O-])c1cc(/C=N/Nc2nc3ccccc3[nH]2)c(O)cc1O	17.8
C#CCOCCOCCOCCNc1nc(N2CCN(C(=O)CCCCCCCCCCNC(=O)[C@H]([C@@H](C)CC)n3cc(CCCCCN)nn3)CC2)nc(N2CCN(C(=O)CCCCCCCCCCNC(=O)[C@H]([C@@H](C)CC)n3cc(CCCCN=C(N)N)nn3)CC2)n1	25
CN(C)CCCN1c2ccccc2Sc2ccccc21	40.1
CCCCCN=C(N)N/N=C/c1c[nH]c2ccc(OC)cc12	26.9
[O-][n+]1cccc2c(Br)cc(Br)c(O)c21	36.6
CCOC(=O)c1c(-c2ccccc2)oc2ccc(OCC(O)CNCCN(C)C)cc12 (configuration not stated)	36.8
O=[N+]([O-])/C=C/c1cc2ccccc2[nH]1	36.9
CC1(CC(=O)N/N=C/c2cc([N+](=O)[O-])c(O)cc2O)OCCO1	74
N=c1c2c(n(Cc3ccc(Cl)cc3)c3c1CCC3)CCC2	79.7
CCOC(=O)C1=C(C(C)=O)C(c2cccnc2)C(C#N)=C(N)O1 (configuration not stated)	57.5
COc1ccccc1CNCCc1ccc(F)cc1	33
O=C(C[n+]1cnn(CC(=O)c2ccc(Cl)cc2Cl)c1)c1ccc([N+](=O)[O-])cc1	36.1
C[C@@H](NC(=O)/C(C#N)=C/c1ccc(O)c(O)c1)c1ccccc1	84.3
OC(CNCC1CCCO1)Cn1c2ccc(Cl)cc2c2cc(Cl)ccc21 (configuration not stated)	23.7
CCCCCc1ccc(OCCCC[n+]2cccc(C)c2)c(CCCCC)c1	64.9
CCn1cc(C(=O)O)c(=O)c2cc(F)c(N3CCN(C(=S)NC(=O)c4cccc(F)c4)CC3)cc21	94.6

Structure (SMILES)	IC50 [µM]
Cc1ccc(OCC(=O)N/N=C\c2c(C)[nH]n(-c3ccccc3)c2=O)c([N+](=O)[O-])c1	42.6
COc1ccc(Cc2nnc(N/N=C/c3ccc(O)cc3)[nH]c2=O)cc1OC	83
CN(C)c1ccc(/C=C/c2ccc3ccccc3[n+]2C)cc1	19.1
CCCCc1ccc2[nH]cc(CCN)c2c1	77
COc1cc(/C=C2/C(=O)NN(c3ccc(C)c(Cl)c3)C2=O)cc([N+](=O)[O-])c1O	74.6
Cc1nonc1C(=O)N/N=C/c1ccc(O)cc1O	20.3
COc1ccc(/C=N/Nc2cc(C)nc3ccccc23)cc1	29.2
N#C/C(N=Nc1ccccc1O)=N\Nc1ccccc1O	20.2
O=C(CSc1ccccn1)N/N=C/c1cc([N+](=O)[O-])ccc1O	40.4
C/C(=N\NC(=O)c1ccc(CN2CCc3ccccc3C2)cc1)c1ccccc1O	51.8
C#CCOCCOCCOCCNc1nc(N2CCN(C(=O)[C@H](Cc3ccc(O)cc3)n3cc([C@@H](N)C(C)CC)nn3)CC2)nc(N2CCN(C(=O)[C@H](Cc3cc4ccccc4[nH]3)n3cc([C@@H](N)Cc4ccc(O)cc4)nn3)CC2)n1 (some centres not stated)	32.5
CCn1cc(C(=O)O)c(=O)c2cc(F)c(N3CCN(S(=O)(=O)c4ccc(NC(C)=O)cc4)CC3)cc21	131
O=S1(=O)Nc2c(ccc3cccnc23)-c2ccccc21	3.32
Cc1ccc(S(=O)(=O)NNc2ccccc2)c(C)c1	42.7
COC(=O)C1=C(C)N(Cc2ccccc2)C(=NCc2cccc(C(F)(F)F)c2)N[C@H]1c1cccc(F)c1	35.3
CC[n+]1c(/C=C/C=C/c2ccc(N(C)C)cc2)sc2ccccc21	128
Cc1cc(C(C)(C)CC(C)(C)C)ccc1OCCOCC[N+](C)(C)Cc1ccccc1	16.8
c1ccc(CCN2CN(CCCN3CCOCC3)c3nc4ccccc4n3C2)cc1	128
CN(C)c1ccc(O)c2c1CC1CC3[C@@H](N(C)C)C(=O)C(C(N)=O)=C(O)[C@]3(O)C(=O)C1=C2O (some centres not stated)	3.9
Oc1ccc(N=Nc2ccc(Br)cc2)c(O)c1	100
O=C1c2cccc3cccc(c23)C(=O)C1(O)O	17
